Experimental data reported in ChEMBL document CHEMBL2429790, “Identification of 2-amino-5-aryl-pyrazines as inhibitors of human lactate dehydrogenase” (Bioorg Med Chem Lett, 2013).
Values after ≈ are worked out from the molar mass of the structure shown.

Key:
[1] = target: L-lactate dehydrogenase B chain (Homo sapiens, UniProt P07195)
[2] = target: T1, L-lactate dehydrogenase A chain (Homo sapiens, UniProt P00338); assay: Inhibition of human recombinant carboxy-terminal his-tagged LDHA (1 to 331) expressed in Escherichia coli using pyruvate as substrate assessed as disappearance of NADH after 10 mins by fluorescence assay
[3] = target: T1, L-lactate dehydrogenase A chain; assay: Binding affinity to human recombinant carboxy-terminal his-tagged LDHA (1 to 331) expressed in Escherichia coli by surface plasmon resonance analysis in presence of NADH
[4] = Cytotoxicity against human MCF7-neo/Her2 cells assessed as cell viability at 50 uM by Sytox Green/Hoescht 33342 staining assay; assay type: cell-based
[5] = Oral bioavailability in Sprague-Dawley rat at 1.5 mg/kg; assay type: ADME, organism-based; settings: in vivo
[6] = Half life in Sprague-Dawley rat at 1.5 mg/kg, po and 0.5 mg/kg, iv; assay type: ADME, organism-based; settings: in vivo
[7] = AUC (infinity) in Sprague-Dawley rat at 1.5 mg/kg, po; assay type: ADME, organism-based; set-up: time infinity, dose 1.5 mg/kg, route oral; settings: plasma
[8] = Cmax in Sprague-Dawley rat at 0.5 mg/kg, iv; assay type: ADME, organism-based; set-up: dose 0.5 mg/kg, route intravenous; settings: in vivo
[9] = Volume of distribution in Sprague-Dawley rat at 1.5 mg/kg, po and 0.5 mg/kg, iv; assay type: ADME, organism-based; settings: in vivo
[10] = Plasma clearance in Sprague-Dawley rat at 1.5 mg/kg, po and 0.5 mg/kg, iv; assay type: ADME, organism-based
[11] = target: Cytochrome P450 2C19 (Homo sapiens, UniProt P33261); assay: Inhibition of CYP2C19 (unknown origin) up to 10 uM; assay type: ADME
Chain of Cytochrome P450 2C19 (P33261 whole entry): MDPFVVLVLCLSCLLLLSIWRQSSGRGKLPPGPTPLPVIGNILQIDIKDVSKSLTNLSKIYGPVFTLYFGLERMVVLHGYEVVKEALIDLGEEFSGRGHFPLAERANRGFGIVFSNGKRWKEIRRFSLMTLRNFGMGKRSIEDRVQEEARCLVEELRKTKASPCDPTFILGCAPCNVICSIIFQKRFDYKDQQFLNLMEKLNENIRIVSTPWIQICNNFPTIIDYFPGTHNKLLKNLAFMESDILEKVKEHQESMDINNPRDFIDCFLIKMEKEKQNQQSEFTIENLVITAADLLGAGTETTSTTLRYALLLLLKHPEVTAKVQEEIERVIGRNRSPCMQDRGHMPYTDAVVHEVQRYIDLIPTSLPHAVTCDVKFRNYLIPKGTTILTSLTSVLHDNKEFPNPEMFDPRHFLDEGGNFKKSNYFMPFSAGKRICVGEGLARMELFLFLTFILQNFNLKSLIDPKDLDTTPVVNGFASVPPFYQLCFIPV

[12] = target: T2, Cytochrome P450 1A2 (Homo sapiens, UniProt P05177); assay: Inhibition of CYP1A2 (unknown origin) up to 10 uM; assay type: ADME
T2 sequence (P05177 whole entry): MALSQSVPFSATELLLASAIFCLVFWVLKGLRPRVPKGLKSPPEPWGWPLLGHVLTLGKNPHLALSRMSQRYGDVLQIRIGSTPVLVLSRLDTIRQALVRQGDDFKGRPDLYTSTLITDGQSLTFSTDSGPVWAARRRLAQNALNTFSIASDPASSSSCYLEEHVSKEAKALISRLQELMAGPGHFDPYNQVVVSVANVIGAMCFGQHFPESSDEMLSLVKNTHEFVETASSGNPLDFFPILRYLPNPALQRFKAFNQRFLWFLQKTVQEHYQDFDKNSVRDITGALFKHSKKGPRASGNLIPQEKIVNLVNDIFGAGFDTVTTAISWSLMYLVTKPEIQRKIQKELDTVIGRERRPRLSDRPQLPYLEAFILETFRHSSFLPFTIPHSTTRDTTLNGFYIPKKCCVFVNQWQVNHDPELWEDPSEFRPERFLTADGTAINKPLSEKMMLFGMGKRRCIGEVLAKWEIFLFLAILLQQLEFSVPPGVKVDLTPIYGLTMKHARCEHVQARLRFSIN

[13] = target: Cytochrome P450 2D6 (Homo sapiens, UniProt P10635); assay: Inhibition of CYP2D6 (unknown origin) up to 10 uM; assay type: ADME
Chain of Cytochrome P450 2D6 (P10635 whole entry): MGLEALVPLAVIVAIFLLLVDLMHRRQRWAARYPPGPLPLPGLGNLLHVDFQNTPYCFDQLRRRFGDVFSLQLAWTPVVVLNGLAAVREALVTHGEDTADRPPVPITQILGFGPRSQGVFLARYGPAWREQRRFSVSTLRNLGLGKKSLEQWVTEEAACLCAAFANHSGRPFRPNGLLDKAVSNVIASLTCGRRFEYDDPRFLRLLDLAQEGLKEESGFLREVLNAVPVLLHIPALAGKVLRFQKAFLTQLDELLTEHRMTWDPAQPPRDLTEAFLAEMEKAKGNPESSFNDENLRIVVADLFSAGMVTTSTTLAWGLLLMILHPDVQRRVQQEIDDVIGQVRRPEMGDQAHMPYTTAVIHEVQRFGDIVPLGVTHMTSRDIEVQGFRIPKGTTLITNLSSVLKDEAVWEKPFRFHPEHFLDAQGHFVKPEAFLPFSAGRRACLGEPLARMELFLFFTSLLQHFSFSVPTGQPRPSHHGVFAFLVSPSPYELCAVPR

[14] = target: Cytochrome P450 2C9 (Homo sapiens, UniProt P11712); assay: Inhibition of CYP2C9 (unknown origin) up to 10 uM; assay type: ADME
Chain of Cytochrome P450 2C9 (P11712 whole entry): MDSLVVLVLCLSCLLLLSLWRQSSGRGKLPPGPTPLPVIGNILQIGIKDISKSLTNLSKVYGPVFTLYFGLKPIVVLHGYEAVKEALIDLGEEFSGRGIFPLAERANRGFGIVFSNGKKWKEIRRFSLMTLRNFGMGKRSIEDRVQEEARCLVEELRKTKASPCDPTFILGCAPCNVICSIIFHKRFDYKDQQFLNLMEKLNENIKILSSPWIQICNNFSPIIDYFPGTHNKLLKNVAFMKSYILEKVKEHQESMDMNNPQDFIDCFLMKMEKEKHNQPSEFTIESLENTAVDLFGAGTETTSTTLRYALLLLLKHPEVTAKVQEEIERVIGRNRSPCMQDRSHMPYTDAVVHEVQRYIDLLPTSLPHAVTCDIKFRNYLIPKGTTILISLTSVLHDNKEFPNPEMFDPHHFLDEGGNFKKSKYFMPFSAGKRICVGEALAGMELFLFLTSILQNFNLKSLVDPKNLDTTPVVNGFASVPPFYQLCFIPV

[15] = Aqueous kinetic solubility of the compound at pH 7.4; assay type: physicochemical; settings: read-out: Kinetic_solubility
[16] = target: Cytochrome P450 3A4 (Homo sapiens, UniProt P08684); assay: Inhibition of CYP3A4 (unknown origin) up to 10 uM; assay type: ADME
Chain of Cytochrome P450 3A4 (P08684 whole entry): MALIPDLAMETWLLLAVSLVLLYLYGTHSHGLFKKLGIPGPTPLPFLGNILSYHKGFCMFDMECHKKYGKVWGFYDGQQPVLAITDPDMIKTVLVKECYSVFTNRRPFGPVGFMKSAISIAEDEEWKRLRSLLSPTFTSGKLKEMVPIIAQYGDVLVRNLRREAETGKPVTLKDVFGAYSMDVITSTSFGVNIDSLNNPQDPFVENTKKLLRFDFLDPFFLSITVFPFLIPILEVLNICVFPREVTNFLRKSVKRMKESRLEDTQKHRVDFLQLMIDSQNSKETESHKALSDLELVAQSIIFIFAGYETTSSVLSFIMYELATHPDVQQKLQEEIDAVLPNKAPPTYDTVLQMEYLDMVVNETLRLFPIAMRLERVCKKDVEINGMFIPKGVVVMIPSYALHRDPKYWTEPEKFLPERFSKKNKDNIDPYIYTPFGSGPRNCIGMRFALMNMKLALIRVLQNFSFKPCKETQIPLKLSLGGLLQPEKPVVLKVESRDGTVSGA

[17] = Permeability across basolateral to apical side in MDCK cells; assay type: ADME, cell-based, Canis lupus familiaris; settings: dog, read-out: permeability
[18] = Plasma protein binding in rat at 5 uM after 4 hrs by equilibrium dialysis method; assay type: ADME, cell-free; settings: read-out: PPB (converted)
[19] = Permeability across apical to basolateral side in MDCK cells; assay type: ADME, cell-based, Canis lupus familiaris; settings: dog, read-out: permeability
[20] = Plasma protein binding in human at 5 uM after 4 hrs by equilibrium dialysis method; assay type: ADME, cell-free; settings: read-out: PPB
[21] = target: T1, L-lactate dehydrogenase A chain; assay: Binding affinity to human recombinant carboxy-terminal his-tagged LDHA (1 to 331) expressed in Escherichia coli by surface plasmon resonance analysis in absence of NADH

Chain of L-lactate dehydrogenase B chain (P07195 whole entry): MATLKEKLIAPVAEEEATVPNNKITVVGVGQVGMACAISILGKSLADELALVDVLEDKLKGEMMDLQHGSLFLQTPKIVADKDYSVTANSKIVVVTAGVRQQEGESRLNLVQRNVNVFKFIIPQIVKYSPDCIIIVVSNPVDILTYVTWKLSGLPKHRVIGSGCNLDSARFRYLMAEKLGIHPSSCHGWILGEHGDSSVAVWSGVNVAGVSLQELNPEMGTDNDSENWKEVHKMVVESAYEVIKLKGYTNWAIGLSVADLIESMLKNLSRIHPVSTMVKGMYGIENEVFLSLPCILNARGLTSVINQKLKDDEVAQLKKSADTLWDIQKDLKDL

Compound	IC50 [1]	IC50 [2]	Kd [3]	also measured
C[C@@H](Nc1nc(-n2cc(C(=O)O)cn2)cnc1N)c1ccccc1	15 µM	15 µM		
C[C@@H](Nc1nc(-c2ccc(C(=O)O)cc2)cnc1N)c1ccccc1		14 µM		
Cc1nc(N)c(N[C@H](C)c2ccccc2)nc1-c1cccc(C(=O)O)c1	> 100 µM	91 µM	> 100 µM	
C[C@@H](Oc1nc(-c2cccc(C(=O)O)c2)cnc1N)c1ccccc1	> 100 µM	> 100 µM	> 100 µM	
C[C@@H](Nc1cc(-c2cccc(C(=O)O)c2)cnc1N)c1ccccc1		18 µM	29 µM	
C[C@H](c1ccccc1)N(C)c1nc(-c2cccc(C(=O)O)c2)cnc1N		> 100 µM	> 100 µM	
Cc1ccc(C(=O)O)cc1-c1cnc(N)c(N[C@H](C)c2ccc(Cl)cc2)n1		0.5 µM		Activity [4]: Non-toxic; bioavailability [5]: 41%; half-life [6]: 2.8 h; AUC(0-inf) [7]: 0.55 µM·h; Cmax [8]: 2100 nM; Vd [9]: 1.4 L/kg; clearance [10]: 60 mL/min/kg; inhibition (INH) [11]: Not Active; inhibition (INH) [12]: Not Active; inhibition (INH) [13]: Not Active; inhibition (INH) [14]: Not Active; solubility kinetic [15]: 81 µM (≈ 31 µg/mL); inhibition (INH) [16]: Not Active; Papp B→A [17]: 10.3 ×10⁻⁶ cm/s; fraction unbound at 4 h, 5 µM [18]: 0.01; Papp A→B [19]: 12.1 ×10⁻⁶ cm/s; fraction unbound at 4 h, 5 µM [20]: < 0.01
C[C@@H](Nc1nc(-c2cccc(C(N)=O)c2)cnc1N)c1ccccc1		> 100 µM	> 100 µM	
COc1ccc(C(=O)O)cc1-c1cnc(N)c(N[C@H](C)c2ccccc2)n1	7 µM	2 µM	3 µM	
COCCNc1nc(-c2cccc(C(=O)O)c2)cnc1N		> 100 µM	> 100 µM	
CNc1ncc(-c2cccc(C(=O)O)c2)nc1N[C@H](C)c1ccccc1	> 100 µM	73 µM	> 100 µM	
C[C@@H](Nc1nc(-c2ccnc(C(=O)O)c2)cnc1N)c1ccccc1		24 µM	32 µM	
Cc1c(C(=O)O)cccc1-c1cnc(N)c(N[C@H](C)c2ccccc2)n1		35 µM	> 100 µM	
CC(=O)Nc1ncc(-c2cccc(C(=O)O)c2)nc1N[C@H](C)c1ccccc1	> 100 µM	> 100 µM		
Nc1ncc(-c2cccc(C(=O)O)c2)nc1NCC1CCCC1		19 µM	18 µM	
C[C@@H](Nc1nc(-c2cccc(C(=O)NS(C)(=O)=O)c2)cnc1N)c1ccccc1	> 100 µM	> 100 µM	> 100 µM	
C[C@@H](Nc1nc(-c2cccc(C(=O)O)c2)cnc1O)c1ccccc1	> 100 µM	> 100 µM	> 100 µM	

Compound	IC50 [1]	IC50 [2]	Kd [3]	also measured
CC(C)c1ccc(C(=O)O)cc1-c1cnc(N)c(N[C@H](C)c2ccccc2)n1	7 µM	2 µM	5 µM	
C[C@@H](Nc1nc(-c2cccc(C(=O)O)c2)cnc1NS(C)(=O)=O)c1ccccc1	> 100 µM	71 µM		
Cc1ccc(C(=O)O)cc1-c1cnc(N)c(N[C@H](C)c2ccccc2)n1	6 µM	2 µM	3 µM	
C[C@@H](Nc1nc(-c2cccc(C(=O)O)c2)cnc1N)c1ccc(Cl)cc1	5 µM	2 µM	5 µM	
Cc1cc(C(=O)O)cc(-c2cnc(N)c(N[C@H](C)c3ccccc3)n2)c1	7 µM	4 µM	7 µM	
Nc1ncc(-c2cccc(C(=O)O)c2)nc1NCc1ccccc1		12 µM	22 µM	
C[C@@H](Nc1nc(-c2cc(C(=O)O)ccc2Cl)cnc1N)c1ccccc1	8 µM	2 µM	5 µM	
CCOC(=O)c1cccc(-c2cnc(N)c(N[C@H](C)c3ccccc3)n2)c1		> 100 µM	> 100 µM	
C[C@@H](Nc1nc(-c2cccc(C(=O)O)c2)ccc1N)c1ccccc1		> 100 µM	> 100 µM	
C[C@@H](Nc1nc(-c2ccccc2C(=O)O)cnc1N)c1ccccc1	> 100 µM	> 100 µM	> 100 µM	
C[C@@H](Nc1nc(-c2ccc(C(=O)O)c(O)c2)cnc1N)c1ccccc1		10 µM		
C[C@@H](Nc1nc(-c2cccc(C(=O)O)c2)cnc1N)C1CCCCC1		3 µM	7 µM	
C[C@@H](Nc1nc(-c2cccc(C(=O)O)c2)cnc1N)c1ccccc1		4 µM	7 µM	inhibition (INH) [11]: Not Active; inhibition (INH) [12]: Not Active; inhibition (INH) [13]: Not Active; inhibition (INH) [14]: Not Active; solubility kinetic [15]: 137 µM (≈ 45.8 µg/mL); inhibition (INH) [16]: Not Active; Papp B→A [17]: 4 ×10⁻⁶ cm/s; fraction unbound at 4 h, 5 µM [18]: 0.04; Papp A→B [19]: 9.6 ×10⁻⁶ cm/s; fraction unbound at 4 h, 5 µM [20]: 0.01; Kd [21]: 857 µM
C[C@H](Nc1nc(-c2cccc(C(=O)O)c2)cnc1N)c1ccccc1		> 100 µM	> 100 µM	
C[C@@H](Nc1nc(-c2csc(C(=O)O)c2)cnc1N)c1ccccc1	> 100 µM	50 µM	33 µM	
C[C@@H](Nc1cncc(-c2cccc(C(=O)O)c2)n1)c1ccccc1		25 µM	> 100 µM	
Cc1ccc(-c2cnc(N)c(N[C@H](C)c3ccccc3)n2)cc1C(=O)O		15 µM	29 µM	
